The values that follow come from ChEMBL document CHEMBL1155560, “Two complex proline esters from the sea hare Stylocheilus longicauda” (J Nat Prod, 2000).

What all share (assay type): functional, cell-based
The subject of one assay is P388. As to the kind of experiment: Cytotoxicity against mouse P388 cells.
A further assay has as its system A549. Nature of the assay: Cytotoxicity against human A549 cells.
Assay [1] can be described thus: Cytotoxicity against human HTB38 cells. Particulars: HTB-38.

Each structure is given as a SMILES string. In brackets after ≈: the same amount, converted by molar mass.

What is called IC50 is the concentration at which inhibition is half-maximal. On to `C=C[C@](C)(CCC=C(C)C)c1ccc2c3c(c[nH]c13)C[C@@H](COC(C)=O)NC(=O)[C@H](C(C)C)N2C` [LYNGBYATOXIN A ACETATE], for which the IC50 (in the assay with P388; with A549; in assay [1]) was 0.05 µg/mL in each case.

For `C=C(C/C=C/C=C/Cl)CC(OC(=O)[C@@H]1CCC(=O)N1C)C(C)(C)C` (stereo partly specified), the IC50 (in the assay with P388; in the assay with A549; in assay [1]) was 2.5 µg/mL (≈ 7.06 µM) throughout.
